The source of these data is patent publication US20230097975A1, “BORTEZOMIB COMPOSITIONS” (MAIA Pharmaceuticals, Inc., priority 2021, published 2023).

A short description of data set [1]: Estimated solubility of bortezomib in select non-aqueous solvents (visual, incremental solvent addition). Format: physicochemical. On the procedure: The appearance of the solution was recorded.
For data set [2] the following is noted: cited from earlier work.

In brackets after ≈: the same amount, converted by molar mass.

On to `CC(C)C[C@H](NC(=O)[C@H](Cc1ccccc1)NC(=O)c1cnccn1)B(O)O` [Bortezomib, [(1R)-3-methyl-1-[[(2S)-1-oxo-3-phenyl-2-[(pyrazinylcarbonyl)amino]propyl]amino]butyl] boronic acid], for which the Observation result is on record as “Completely dissolved after 1 mL” in data set [1] (N-methyl pyrrolidone (NMP)); “Completely dissolved after 0.5 mL” in data set [1] (benzyl alcohol); “Completely dissolved after 0.5 mL” in data set [1] (dimethyl sulfoxide (DMSO)); “No significant dissolution observed up to 10 mL” in data set [1] (glycerol); “No significant dissolution observed up to 10 mL” in data set [1] (polyethylene glycol 400). The “Observation (solvent needed to dissolve approx. 25 mg)” value in data set [1] (alcohol (ethanol)) is “Approximately 5.5 mL of solvent needed”; in data set [1] (propylene glycol), “Approximately 7 mL of solvent needed”. For the same compound, the “Estimated Solubility” value in data set [1] (in benzyl alcohol) and in data set [1] (in dimethyl sulfoxide (DMSO)) was more than 50 mg/mL each time.

Turning to `OCc1ccccc1` [benzyl alcohol], the Solubility in water in data set [2] is 35 mg/mL (≈ 324 mM).
